Measured values: patent US10233182B2, “Substituted spirocyclic inhibitors of autotaxin” (X-Rx, Inc., priority 2014, dated 2019)
pIC50: −log10 of the molar value. Where a name gives a salt, the structure may show the parent alone.

molecular target: Autotaxin (Homo sapiens (Human), UniProt Q13822); test: Autotaxin LPC Cascade Assay; format: biochemical; conditions: Autotaxin 5 nM, LPC 100 μM, choline oxidase/HRP/Ampliflu Red fluorescence read-out, 2% DMSO, RT; read-out: IC50 ATX Activity
Summary of the method: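 Choline liberated from LPC by autotaxin during 1 h, after a 10-min RT compound preincubation, was converted through choline oxidase/HRP to a fluorescent Ampliflu Red product.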

Compound	pIC50
COC(=O)Nc1ccc(N2C(=O)N(C)C(=O)C23CCN(C(=O)[C@H](NC(=O)c2cc(C(F)(F)F)ccc2F)C(C)C)CC3)cc1 [Example 127, (R)-Methyl-4-(8-(2-(2-fluoro-5-(trifluoromethyl)benzamido)-3-methylbutanoyl)-3-methyl-2,4-dioxo-1,3,8-triazaspiro[4.5]decan-1-yl)phenylcarbamate]	6.00 to 6.30
CC(C)[C@@H](NC(=O)c1cc(C(F)(F)F)ccc1F)C(=O)N1CCC2(CC1)C(=O)N(C)C(=O)N2c1ccc(NC(=O)C2CC2)cc1 [Example 128, (R)—N-(1-(1-(4-(Cyclopropanecarboxamido)phenyl)-3-methyl-2,4-dioxo-1,3,8-triazaspiro[4.5]decan-8-yl)-3-methyl-1-oxobutan-2-yl)-2-fluoro-5-(trifluoromethyl)benzamide]	6.00 to 6.30
Cc1cccc(C(=O)N[C@H](C(=O)N2CCC3(CC2)C(=O)N(C)CN3c2ccccc2)C2CCOCC2)c1 [Example 130, (S)-3-Methyl-N-(2-(3-methyl-4-oxo-1-phenyl-1,3,8-triazaspiro[4.5]decan-8-yl)-2-oxo-1-(tetrahydro-2H-pyran-4-yl)ethyl)benzamide]	≤ 6.00
Cc1cccc(C(=O)N[C@@H](C(=O)N2CCC3(CC2)C(=O)N(C)CN3c2ccccc2)C2CCCCC2)n1 [Example 131, (R)—N-(1-Cyclohexyl-2-(3-methyl-4-oxo-1-phenyl-1,3,8-triazaspiro[4.5]decan-8-yl)-2-oxoethyl)-6-methylpicolinamide trifluoroacetic Acid Salt]	> 6.30
CCc1ccc(F)c(C(=O)N[C@@H](C(=O)N2CCC3(CC2)C(=O)N(C)CN3c2ccccc2)[C@H](C)OC)c1 [Example 133, 5-Ethyl-2-fluoro-N-((2R,3S)-3-methoxy-1-(3-methyl-4-oxo-1-phenyl-1,3,8-triazaspiro[4.5]decane-8-yl)-1-oxobutan-2-yl)benzamide]	> 6.30
CO[C@@H](C)[C@@H](NC(=O)c1cccc(C)c1)C(=O)N1CCC2(CC1)C(=O)N(C)CN2c1ccccc1 [Example 134, N-((2R,3S)-3-Methoxy-1-(3-methyl-4-oxo-1-phenyl-1,3,8-triazaspiro[4.5]decan-8-yl)-1-oxobutan-2-yl)-3-methylbenzamide]	> 6.30
CCc1cccc(C(=O)N[C@@H](C(=O)N2CCC3(CC2)C(=O)N(C)CN3c2ccccc2)[C@H](C)OC)c1 [Example 135, 3-Ethyl-N-((2R,3S)-3-methoxy-1-(3-methyl-4-oxo-1-phenyl-1,3,8-triazaspiro[4.5]decan-8-yl)-1-oxobutan-2-yl)benzamide]	> 6.30
CCc1cc(F)cc(C(=O)N[C@@H](C(=O)N2CCC3(CC2)C(=O)N(C)CN3c2ccccc2)[C@H](C)OC)c1 [Example 136, 3-Ethyl-5-fluoro-N-((2R,3S)-3-methoxy-1-(3-methyl-4-oxo-1-phenyl-1,3,8-triazaspiro[4.5]decan-8-yl)-1-oxobutan-2-yl)benzamide]	> 6.30
Cc1cc(C(=O)N[C@@H](C(=O)N2CCC3(CC2)C(=O)N(C)CN3c2ccccc2)C(C)C)ccn1 [Example 137, (R)-2-Methyl-N-(3-methyl-1-(3-methyl-4-oxo-1-phenyl-1,3,8-triazaspiro[4.5]decan-8-yl)-1-oxobutan-2-yl)isonicotinamide]	≤ 6.00
CCc1cccc(C(=O)N[C@@H](C(=O)N2CCC3(CC2)C(=O)N(C)CN3c2ccccc2)C(C)C)c1 [Example 138, (R)-3-Ethyl-N-(3-methyl-1-(3-methyl-4-oxo-1-phenyl-1,3,8-triazaspiro[4.5]decan-8-yl)-1-oxobutan-2-yl)benzamide]	> 6.30
Cc1cc(C(=O)N[C@@H](C(=O)N2CCC3(CC2)C(=O)N(C)CN3c2ccccc2)C(C)C)ccc1F [Example 139, (R)-4-Fluoro-3-methyl-N-(3-methyl-1-(3-methyl-4-oxo-1-phenyl-1,3,8-triazaspiro[4.5]decan-8-yl)-1-oxobutan-2-yl)benzamide]	> 6.30
Cc1cc(F)cc(C(=O)N[C@@H](C(=O)N2CCC3(CC2)C(=O)N(C)CN3c2ccccc2)C(C)C)c1 [Example 140, (R)-3-Fluoro-5-methyl-N-(3-methyl-1-(3-methyl-4-oxo-1-phenyl-1,3,8-triazaspiro[4.5]decan-8-yl)-1-oxobutan-2-yl)benzamide]	> 6.30
Cc1ccc(F)c(C(=O)N[C@@H](C(=O)N2CCC3(CC2)C(=O)N(C)CN3c2ccccc2)C(C)C)c1 [Example 141, (R)-2-Fluoro-5-methyl-N-(3-methyl-1-(3-methyl-4-oxo-1-phenyl-1,3,8-triazaspiro[4.5]decan-8-yl)-1-oxobutan-2-yl)benzamide]	> 6.30
CC(C)[C@@H](NC(=O)c1cccc(C2CC2)c1)C(=O)N1CCC2(CC1)C(=O)N(C)CN2c1ccccc1 [Example 142, (R)-3-Cyclopropyl-N-(3-methyl-1-(3-methyl-4-oxo-1-phenyl-1,3,8-triazaspiro[4.5]decan-8-yl)-1-oxobutan-2-yl)benzamide]	> 6.30
CCc1ccc(F)c(C(=O)N[C@@H](C(=O)N2CCC3(CC2)C(=O)N(C)CN3c2ccccc2)C(C)C)c1 [Example 144, (R)-5-Ethyl-2-fluoro-N-(3-methyl-1-(3-methyl-4-oxo-1-phenyl-1,3,8-triazaspiro[4.5]decan-8-yl)-1-oxobutan-2-yl)benzamide]	> 6.30
Cc1cccc(C(=O)N[C@@H](C(=O)N2CCC3(CC2)C(=O)N(C)CN3c2ccc(C(N)=O)cc2)C(C)C)c1F [Example 145, (R)—N-(1-(1-(4-Carbamoylphenyl)-3-methyl-4-oxo-1,3,8-triazaspiro[4.5]decan-8-yl)-3-methyl-1-oxobutan-2-yl)-2-fluoro-3-methylbenzamide]	6.00 to 6.30
Cc1cccc(C(=O)N[C@@H](C(=O)N2CCC3(CC2)C(=O)N(C)CN3c2cccc(C(N)=O)c2)C(C)C)c1F [Example 146, (R)—N-(1-(1-(3-Carbamoylphenyl)-3-methyl-4-oxo-1,3,8-triazaspiro[4.5]decan-8-yl)-3-methyl-1-oxobutan-2-yl)-2-fluoro-3-methylbenzamide]	≤ 6.00
Cc1cccc(C(=O)N[C@@H](C(=O)N2CCC3(CC2)C(=O)N(C)CN3c2ccc(B(O)O)cc2)C(C)C)c1F [Example 147, (R)-4-(8-(2-(2-Fluoro-3-methylbenzamido)-3-methylbutanoyl)-3-methyl-4-oxo-1,3,8-triazaspiro[4.5]decan-1-yl)phenylboronic Acid]	> 6.30
Cc1cccc(C(=O)N[C@@H](C(=O)N2CCC3(CC2)C(=O)N(C)CN3c2cccc(B(O)O)c2)C(C)C)c1F [Example 148, (R)-3-(8-(2-(2-Fluoro-3-methylbenzamido)-3-methylbutanoyl)-3-methyl-4-oxo-1,3,8-triazaspiro[4.5]decan-1-yl)phenylboronic Acid]	≤ 6.00
CC(C)[C@@H](NC(=O)c1cc(C(F)(F)F)ccc1F)C(=O)N1CCC2(CC1)C(=O)N(C)CN2c1ccc(C(=O)O)cc1 [Example 149, (R)-4-(8-(2-(2-Fluoro-5-(trifluoromethyl)benzamido)-3-methylbutanoyl)-3-methyl-4-oxo-1,3,8-triazaspiro[4.5]decan-1-yl)benzoic Acid]	> 6.30
Cc1cccc(C(=O)N[C@@H](C(=O)N2CCC3(CC2)C(=O)N(C)CN3c2ccc(C(=O)O)cc2)C(C)C)c1F [Example 150, (R)-4-(8-(2-(2-Fluoro-3-methylbenzamido)-3-methylbutanoyl)-3-methyl-4-oxo-1,3,8-triazaspiro[4.5]decan-1-yl)benzoic Acid]	> 6.30
